Laboratory results from patent publication US9845310B2 (priority 2015, dated 2017).
Like-named read-outs stand apart in the source and are kept apart here. Each block holds one compound with its values, some of them ahead of it.

Key:
APJ = APJ (Homo sapiens (Human), UniProt P35414); conditions: 2003 study, Medhurst et al.; cited from earlier work
heart failure rat model [1] = type: in vivo
Experimental: Male Lewis rats (Charles River, USA) at 2-3 months of age were used for the study. […] APJ agonists were administered dose dependently acutely for a period of 30 min.

[2] = biological target: human APJ and the AT1R receptor (Homo sapiens (Human), UniProt P30556+P35414); assay: IP1 TR-FRET assay of AngII response with or without APJ agonists in double stable CHO-K1 APJ/AT1R cells; type: cell-based; conditions: in the presence of AngII; losartan added
human APJ and the AT1R receptor, sequence (P35414 whole entry, looked up, the tested form may be a part): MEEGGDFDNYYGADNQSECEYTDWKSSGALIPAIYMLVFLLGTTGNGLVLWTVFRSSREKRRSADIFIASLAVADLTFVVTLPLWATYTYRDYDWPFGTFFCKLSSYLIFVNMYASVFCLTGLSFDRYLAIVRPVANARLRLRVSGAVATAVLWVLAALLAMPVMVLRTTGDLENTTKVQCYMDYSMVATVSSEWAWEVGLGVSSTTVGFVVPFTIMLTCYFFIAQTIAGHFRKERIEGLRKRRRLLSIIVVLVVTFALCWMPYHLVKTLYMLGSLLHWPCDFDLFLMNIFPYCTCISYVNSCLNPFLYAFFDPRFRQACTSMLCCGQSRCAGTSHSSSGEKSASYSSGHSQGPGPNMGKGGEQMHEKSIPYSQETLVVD
human APJ and the AT1R receptor, sequence (P30556 whole entry, looked up, the tested form may be a part): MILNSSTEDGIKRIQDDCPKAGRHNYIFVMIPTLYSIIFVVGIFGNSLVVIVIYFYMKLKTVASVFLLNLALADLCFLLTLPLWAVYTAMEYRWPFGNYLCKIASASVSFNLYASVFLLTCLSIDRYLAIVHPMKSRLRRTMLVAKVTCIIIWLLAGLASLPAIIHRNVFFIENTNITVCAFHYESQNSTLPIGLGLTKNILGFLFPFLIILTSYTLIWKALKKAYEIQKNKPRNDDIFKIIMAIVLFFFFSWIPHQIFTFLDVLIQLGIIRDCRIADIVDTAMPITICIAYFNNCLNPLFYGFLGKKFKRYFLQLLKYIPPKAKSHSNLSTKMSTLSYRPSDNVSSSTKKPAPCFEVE
Experimental: Single and double stable recombinant cell lines were generated for human APJ and the AT1R receptor in CHO K1 cells tagged either with FLAG or hemagglutinin (HA) tag. Briefly, the CHO-K1 APJ/AT1R cells were seeded in culture medium of DMEM-F12 and 10% FBS at a density of 15 k/well in a 96 well plate overnight. The next day, the culture medium was replaced with medium containing no serum for 4 hours. The compound AngII at a range of concentrations (1 pM-10 μM) with or without different concentrations of APJ agonists were diluted in stimulation buffer and added to the cell plate. The plate was sealed and incubated for 1 hour. This was followed by addition of IP-d2 conjugate followed by europium cryptate antibody conjugate into the wells. The plate was sealed, followed with incubation for 2 hours at room temperature. Time-resolved fluorescence resonance energy (TR-FRET) at 620 nm and 665 nm was measured after 2 hours with an Envision reader. The signal ratios and delta F were calculated and the amount of IP1 produced was inversely proportional to the TR-FRET ratio, 665/620 nm.

[3] = system: isolated perfused rat hearts; assay: Ex vivo isolated perfused rat heart (Langendorff) assay, load independent inotropic and lusitropic effects; conditions: ARB losartan together with APJ agonist
[4] = system: naive Sprague Dawley rat hearts
heart failure rat model [5] = conditions: captopril alone, acute settings, heart failure rats in vivo
[6] = biological target: human AT1R receptor expressed in the CHO cell line (Homo sapiens (Human), UniProt P30556); conditions: different concentrations of AngII with fixed concentration of pyr apelin-13; human AT1R expressed alone in CHO cells
human AT1R receptor expressed in the CHO cell line, sequence (P30556 whole entry): as the sequence (P30556 whole entry, looked up, the tested form may be a part) above
Experimental: The function of the inositol phosphate accumulation (IP1) was measured by Time-resolved fluorescence resonance energy (TR-FRET) at 620 nm and 665 nm respectively.

[7] = in vivo heart failure (MI) rat, acute administration for 30 min
[8] = ex vivo isolated perfused rat heart, contractility, percent change over vehicle
[9] = ex vivo isolated perfused rat heart, relaxation (lusitropic), percent change over vehicle

APJ, sequence (P35414 whole entry): as the sequence (P35414 whole entry, looked up, the tested form may be a part) above

Compound: apelin-36
- in vitro activity compared among apelin-36, apelin-17 and apelin-13 (APJ): approximately equipotent

Compound: apelin-17
- in vitro activity compared among apelin-36, apelin-17 and apelin-13 (APJ): approximately equipotent

- effect on the positive cooperativity induced by APJ small molecule agonists [2]: relieved this cooperativity
- APJ receptor signaling on blocking AT1R, ex-vivo studies [3]: synergistic effects
Compound: CCCCc1nc(Cl)c(CO)n1Cc1ccc(-c2ccccc2-c2nn[nH]n2)cc1 [losartan]
- APJ receptor signaling on blocking AT1R, in vivo studies (heart failure rat model [1]; ARB losartan together with APJ agonist): synergistic effects

Compound: COc1ncnc(OC)c1-n1c(NS(=O)(=O)[C@@H](C)[C@H](OC)c2ncc(C)cn2)nnc1-c1ccccn1 [Example 628.0, (1R,2S)-N-(4-(4,6-dimethoxy-5-pyrimidinyl)-5-(2-pyridinyl)-4H-1,2,4-triazol-3-yl)-1-methoxy-1-(5-methyl-2-pyrimidinyl)-2-propanesulfonamide]
- MI Rat Model dP/dtmax(%) (heart failure rat model [1]; rat, in vivo): 15%
- Isolated Heart Assay dP/dtmax(%) [4]: 18.3%
- Isolated Heart Assay dP/dtmin(%) [4]: 18.0%

Compound: COc1cccc(-c2nnc(NS(=O)(=O)[C@@H](C)[C@H](OC)c3ncc(C)cn3)n2-c2c(F)cccc2F)n1.O=C(O)C(F)(F)F [Example 684.0, (1R,2S)-N-(4-(2,6-difluorophenyl)-5-(6-methoxy-2-pyridinyl)-4H-1,2,4-triazol-3-yl)-1-methoxy-1-(5-methyl-2-pyrimidinyl)-2-propanesulfonamide]
- MI Rat Model dP/dtmax(%) (heart failure rat model [1]; [7]): 20%
- Isolated Heart Assay dP/dtmax(%) [4, 8]: 19.0%
- Isolated Heart Assay dP/dtmin(%) [4, 9]: 18.3%

Compound: C[C@H](CS)C(=O)N1CCC[C@H]1C(=O)O [Captopril, captopril]
- contractility or ejection fraction (heart failure rat model [5]): does not show a marked improvement

Compound: COc1cccc(OC)c1-n1c(NS(=O)(=O)[C@H](C)[C@@H](OC)c2ncc(Cl)cn2)nnc1-c1cncc(C)c1 (single isomer, unassigned) [Example 557.0]
- MI Rat Model dP/dtmax(%) (heart failure rat model [1]; [7]): No effect
- Isolated Heart Assay dP/dtmax(%) [4, 8]: 17.0%
- Isolated Heart Assay dP/dtmin(%) [4, 9]: 20.0%

Compound: pyr apelin-13
- positive cooperativity (IP1 accumulation) [6]: no positive cooperativity observed
